Laboratory results: patent publication US20250230147A1, “LACTAMS AS CBL-B INHIBITORS” (Genentech, Inc., priority 2021, published 2025)
Structures can show the parent of a compound that is named as a salt.

Assays:
Cbl-b = Cbl-b (Homo sapiens (Human), UniProt Q13191); test: Cbl-b LCK Ub TR-FRET assay (Cbl-b Lck HTRF); format: biochemical
In short: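 Biotin-Cbl-b preincubated with compound (10-point 3-fold series) 60 min, then His-LCK with 1 mM ATP (2× mixture) added for 90 min at room temperature. Ubiquitination detected by TR-FRET using HA-ubiquitin/UBE2D2 adduct, anti-HA-D2 and streptavidin-Eu; IC50 normalised to no-LCK and DMSO controls.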

c-Cbl = c-Cbl (Homo sapiens (Human), UniProt P22681); test: C-Cbl LCK Ub TR-FRET assay (c-cbl Lck HTRF); format: biochemical; conditions: for (fold-selectivity): C-cbl Lck HTRF IC50 relative to Cbl-b Lck HTRF IC50
In short: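 Signal is read once the detection mix has stood 20 min at ambient temperature. Curves are anchored by DMSO as maximum and by omission of LCK as minimum.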

Sequence of c-Cbl (P22681 47-435): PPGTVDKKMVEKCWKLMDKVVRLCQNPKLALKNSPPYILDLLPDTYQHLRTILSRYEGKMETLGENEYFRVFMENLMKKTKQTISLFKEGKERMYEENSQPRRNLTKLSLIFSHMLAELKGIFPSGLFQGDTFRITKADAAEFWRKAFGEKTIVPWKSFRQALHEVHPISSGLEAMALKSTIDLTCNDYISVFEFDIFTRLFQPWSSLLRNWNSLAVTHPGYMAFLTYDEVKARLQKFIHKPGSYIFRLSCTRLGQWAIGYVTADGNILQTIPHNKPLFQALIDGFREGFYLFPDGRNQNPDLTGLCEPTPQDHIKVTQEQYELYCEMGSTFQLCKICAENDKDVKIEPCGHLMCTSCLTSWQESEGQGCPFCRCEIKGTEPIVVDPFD
Sequence of Cbl-b (Q13191 40-426): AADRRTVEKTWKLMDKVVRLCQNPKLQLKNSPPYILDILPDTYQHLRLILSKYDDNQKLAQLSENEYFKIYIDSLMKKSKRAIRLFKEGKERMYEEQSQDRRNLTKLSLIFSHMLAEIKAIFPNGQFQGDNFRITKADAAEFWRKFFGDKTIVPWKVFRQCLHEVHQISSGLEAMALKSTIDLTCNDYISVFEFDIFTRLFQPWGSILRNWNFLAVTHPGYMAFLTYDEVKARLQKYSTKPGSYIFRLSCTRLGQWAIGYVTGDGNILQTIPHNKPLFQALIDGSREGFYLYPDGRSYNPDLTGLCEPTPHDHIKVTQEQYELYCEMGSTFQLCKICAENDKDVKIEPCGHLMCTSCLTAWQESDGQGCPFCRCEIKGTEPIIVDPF

Row | Structure (SMILES) | IC50 (Cbl-b) [nM] | IC50 (c-Cbl) [nM] | (fold-selectivity) (c-Cbl) | fold of selectivity (Cbl-b; Cbl-b over c-Cbl, Lck HTRF IC50) [x]
1 | CCC1(O)CN(Cc2cc3c(c(C(F)(F)F)c2)CN(c2cccc(C4([C@@H](F)c5nncn5C)COC4)c2)C3=O)C1 [Compound 167, (R)-6-((3-ethyl-3-hydroxyazetidin-1-yl)methyl)-2-(3-(3-(fluoro(4-methyl-4H-1,2,4-triazol-3-yl)methyl)oxetan-3-yl)phenyl)-4-(trifluoromethyl)isoindolin-1-one] | 59 | 150 | 2.5x | –
2 | Cn1cnnc1CC1(c2cccc(N3Cc4c(cc(CNCC5(C)CC5)cc4C(F)(F)F)C3=O)c2)CC(F)(F)C1 [Compound 352, 2-(3-(3,3-difluoro-1-((4-methy-4H-1,2,4-triazol-3-yl)methyl)cyclobutyl)phenyl)-6-((((1-methylcyclopropyl)methyl)amino)methyl)-4-(trifluoromethyl)isoindolin-1-one formate] | 12 | 6.7 | – | –
3 | Cn1cnnc1[C@@H](F)C1(c2cccc(N3Cc4c(cc(CN5CCC56COC6)cc4C(F)(F)F)C3=O)c2)COC1 [Compound 176, (S)-6-(6-oxa-1-azaspiro[3.3]heptan-1-ylmethyl)-2-(3-(3-(fluoro(4-methyl-4H-1,2,4-triazol-3-yl)methyl)oxetan-3-yl)phenyl)-4-(trifluoromethyl)isoindolin-1-one] | 350 | 1300 | 3.5x | –
4 | CC(C)[C@H]1CN(C)CCN1Cc1cc2c(c(C(F)(F)F)c1)CN(c1cccc(C3([C@H](F)c4nc(F)cn4C)COC3)c1)C2=O [Compound 270, 2-(3-(3-((S)-fluoro(4-fluoro-1-methyl-1H-imidazol-2-yl)methyl)oxetan-3-yl)phenyl)-6-(((S)-2-isopropyl-4-methylpiperazin-1-yl)methyl)-4-(trifluoromethyl)isoindolin-1-one] | 130 | 350 | (2.6x) | –
5 | C[C@H]1CN(Cc2cc3c(c(C(F)(F)F)c2)CN(c2cccc(C4([C@@H](F)c5nncn5C)COC4)c2)C3=O)CCCO1 [Compound 118, 2-(3-(3-((R)-fluoro(4-methyl-4H-1,2,4-triazol-3-yl)methyl)oxetan-3-yl)phenyl)-6-(((S)-2-methyl-1,4-oxazepan-4-yl)methyl)-4-(trifluoromethyl)isoindolin-1-one] | 7 | 8 | 1.1x | –
6 | COC[C@H]1CCCN1Cc1cc2c(c(C(F)(F)F)c1)CN(c1cccc(C3([C@H](F)c4nncn4C)COC3)c1)C2=O [Compound 156, 2-(3-(3-((S)-fluoro(4-methyl-4H-1,2,4-triazol-3-yl)methyl)oxetan-3-yl)phenyl)-6-(((R)-2-(methoxymethyl)pyrrolidin-1-yl)methyl)-4-(trifluoromethyl)isoindolin-1-one] | 920 | 5200 | 5.6x | 5.6
7 | CNCc1cc2c(c(C(F)(F)F)c1)CN(c1cccc(C3([C@@H](F)c4nncn4C)COC3)c1)C2=O [Compound 212, (R)-2-(3-(3-(fluoro(4-methyl-4H-1,2,4-triazol-3-yl)methyl)oxetan-3-yl)phenyl)-6-((methylamino)methyl)-4-(trifluoromethyl)isoindolin-1-one] | 75 | 130 | 1.7 x | –
8 | Cn1cnnc1[C@@H](F)C1(c2cccc(N3Cc4c(cc(CN5CC6(CCO6)C5)cc4C(F)(F)F)C3=O)c2)COC1 [Compound 140, (S)-6-(1-oxa-6-azaspiro[3.3]heptan-6-ylmethyl)-2-(3-(3-(fluoro(4-methyl-4H-1,2,4-triazol-3-yl)methyl)oxetan-3-yl)phenyl)-4-(trifluoromethyl)isoindolin-1-one] | 380 | 970 | 2.8x | –
9 | CC(C)NCc1cc2c(c(C(F)(F)F)c1)CN(c1cccc(C3(Cc4nncn4C)CC(F)(F)C3)c1)C2=O [Compound 415, 2-(3-(3,3-difluoro-1-((4-methyl-4H-1,2,4-triazol-3-yl)methyl)cyclobutyl)phenyl)-6-((isopropylamino)methyl)-4-(trifluoromethyl)isoindolin-1-one] | 16 | 14 | (0.91x) | –
10 | Cn1cnnc1CC1(c2cc(CCc3ccccc3)nc(N3Cc4c(cc(CNC5(C)CCC5)cc4C(F)(F)F)C3=O)c2)CCC1 [Compound 325, 2-(4-(1-((4-methyl-4H-1,2,4-triazol-3-yl)methyl)cyclobutyl)-6-phenethylpyridin-2-yl)-6-(((1-methylcyclobutyl)amino)methyl)-4-(trifluoromethyl)isoindolin-1-one] | 47 | 41 | (0.87x) | –
11 | Cn1cnnc1CC1(c2cc(OC3CCCC3)cc(N3Cc4c(cc(CNC5(C)CCC5)cc4C(F)(F)F)C3=O)c2)COC1 [Compound 479, 2-(3-(cyclopentyloxy)-5-(3-((4-methyl-4H-1,2,4-triazol-3-yl)methyl)oxetan-3-yl)phenyl)-6-(((1-methylcyclobutyl)amino)methyl)-4-(trifluoromethyl)isoindolin-1-one] | 180 | 290 | (1.6x) | –
12 | COCCN1CCC(Nc2cc(C3(Cc4nncn4C)CCC3)cc(N3Cc4c(cc(CNC5(C)CCC5)cc4C(F)(F)F)C3=O)n2)CC1 [Compound 302, 2-(6-((1-(2-methoxyethyl)piperidin-4-yl)amino)-4-(1-((4-methyl-4H-1,2,4-triazol-3-yl)methyl)cyclobutyl)pyridin-2-yl)-6-(((1-methylcyclobutyl)amino)methyl)-4-(trifluoromethyl)isoindolin-1-one] | 590 | 660 | (1.1x) | –
13 | CC(C)[C@H]1CN(C2COC2)CCN1Cc1cc2c(c(C(F)(F)F)c1)CN(c1cccc(C3([C@@H](F)c4nncn4C)COC3)c1)C2=O [Compound 200, 2-(3-(3-((R)-fluoro(4-methyl-4H-1,2,4-triazol-3-yl)methyl)oxetan-3-yl)phenyl)-6-(((S)-2-isopropyl-4-(oxetan-3-yl)piperazin-1-yl)methyl)-4-(trifluoromethyl)isoindolin-1-one] | 27 | 39 | 1.5x | –
14 | CC(C)[C@H]1CN(C)CCN1Cc1cc2c(c(C(F)(F)F)c1)CN(c1cccc(C3([C@@H](F)c4nncn4C4CCCCC4)COC3)c1)C2=O [Compound 454, 2-(3-(3-((R)-(4-cyclohexyl-4H-1,2,4-triazol-3-yl)fluoromethyl)oxetan-3-yl)phenyl)-6-(((S)-2-isopropyl-4-methylpiperazin-1-yl)methyl)-4-(trifluoromethyl)isoindolin-1-one] | 11000 | 6200 | (0.57x) | –
15 | Cn1cnnc1[C@H](F)C1(c2cccc(N3Cc4c(cc(CN5CCC(C)(O)CC5)cc4C(F)(F)F)C3=O)c2)COC1 [Compound 141, (R)-2-(3-(3-(fluoro(4-methyl-4H-1,2,4-triazol-3-yl)methyl)oxetan-3-yl)phenyl)-6-((4-hydroxy-4-methylpiperidin-1-yl)methyl)-4-(trifluoromethyl)isoindolin-1-one] | 91 | 120 | 1.3x | –
16 | CCOc1cc(C2(Cc3nncn3C)COC2)cc(N2Cc3c(cc(CN4CCC(F)(F)[C@H](C)C4)cc3C(F)(F)F)C2=O)n1 [Compound 375, (R)-6-((4,4-difluoro-3-methylpiperidin-1-yl)methyl)-2-(6-ethoxy-4-(3-((4-methyl-4H-1,2,4-triazol-3-yl)methyl)oxetan-3-yl)pyridin-2-yl)-4-(trifluoromethyl)isoindolin-1-one] | 22 | 14 | (0.65x) | –
17 | CN(CCC(C)(C)O)Cc1cc2c(c(C(F)(F)F)c1)CN(c1cccc(C3([C@@H](F)c4nncn4C)COC3)c1)C2=O [Compound 157, (R)-2-(3-(3-(fluoro(4-methyl-4H-1,2,4-triazol-3-yl)methyl)oxetan-3-yl)phenyl)-6-(((3-hydroxy-3-methylbutyl)(methyl)amino)methyl)-4-(trifluoromethyl)isoindolin-1-one] | 72 | 110 | 1.6x | –
18 | CC(C)[C@H]1CN(C)CCN1Cc1cc2c(c(C(F)(F)F)c1)CN(c1cccc(C3([C@H](F)c4nncn4C)CC(F)(F)C3)c1)C2=O [Compound 190, 2-(3-(3,3-difluoro-1-((S)-fluoro(4-methyl-4H-1,2,4-triazol-3-yl)methyl)cyclobutyl)phenyl)-6-(((S)-2-isopropyl-4-methylpiperazin-1-yl)methyl)-4-(trifluoromethyl)isoindolin-1-one] | 47 | 38 | 0.82x | –
19 | Cn1cnnc1[C@@H](F)C1(c2cccc(NC(=O)c3cc(CN4CC(C)(CO)C4)cc(C4CC4)n3)c2)CC(F)(F)C1 [Compound 423, (S)-6-cyclopropyl-N-(3-(3,3-difluoro-1-(fluoro(4-methyl-4H-1,2,4-triazol-3-yl)methyl)cyclobutyl)phenyl)-4-((3-(hydroxymethyl)-3-methylazetidin-1-yl)methyl)picolinamide] | 23 | 23 | (1.0x) | –
20 | CC(C)[C@H]1CN(C)CCN1Cc1cc2c(c(C(F)(F)F)c1)CN(c1cccc(C3(Cc4nncn4C(F)F)COC3)c1)C2=O [Compound 266, (S)-2-(3-(3-((4-(difluoromethyl)-4H-1,2,4-triazol-3-yl)methyl)-oxetan-3-yl)phenyl)-6-((2-isopropyl-4-methylpiperazin-1-yl)methyl)-4-(trifluoromethyl)-isoindolin-1-one] | 13 | 9.7 | (0.76x) | –
